Assays:
C. elegans [1] = assay: C. elegans lifespan; type: in vivo
Description: Urolithins extend lifespan and improve fitness in C. elegans.

C. elegans [2] = assay: Mitochondrial function with age in C. elegans; type: in vivo
mitophagy = assay: Induction of mitophagy in vitro and in vivo; details: in vitro and in vivo following oral consumption
C. elegans [3] = assay: Activity and fitness during aging in C. elegans (mobility, pharyngeal pumping); type: in vivo

Row | Compound | effect on lifespan (C. elegans [1]; at the same concentration (not given)) | accumulation of dysfunctional mitochondria with age (C. elegans [2]) | mitochondrial respiratory capacity (C. elegans [2]; during aging) | induction of mitophagy (mitophagy) | lifespan (C. elegans [1]) | mortality observed at advanced ages (C. elegans [1]; at 50 μM) | dose-response effect on lifespan (C. elegans [1]; concentrations increased from 10 to 50 μM) | normal activity during aging, including mobility and pharyngeal pumping (C. elegans [3])
1 | O=c1oc2c(O)c(O)cc3c(=O)oc4c(O)c(O)cc1c4c23 [EA] | no effect on lifespan |  |  |  |  |  |  | 
2 | O=c1oc2cc(O)ccc2c2ccc(O)cc12 [UA, urolithin A] |  | prevented the accumulation of dysfunctional mitochondria with age | maintaining mitochondrial respiratory capacity | induces mitophagy both in vitro and in vivo | extended lifespan | significantly delayed the mortality | clear dose-response effect | prolonged normal activity during aging
